Measurements published in patent US20210106703A1, “RADIOIMMUNOCONJUGATES IN COMBINATION WITH OTHER DRUGS AS TREATMENT AGAINST NHL” (Nordic Nanovector ASA, priority 2017, published 2021).
Entries after “also recorded” stand apart in the source; their conditions may differ.

T1: CD37 receptor (Homo sapiens, UniProt P11049)
T1 sequence (P11049 1-281): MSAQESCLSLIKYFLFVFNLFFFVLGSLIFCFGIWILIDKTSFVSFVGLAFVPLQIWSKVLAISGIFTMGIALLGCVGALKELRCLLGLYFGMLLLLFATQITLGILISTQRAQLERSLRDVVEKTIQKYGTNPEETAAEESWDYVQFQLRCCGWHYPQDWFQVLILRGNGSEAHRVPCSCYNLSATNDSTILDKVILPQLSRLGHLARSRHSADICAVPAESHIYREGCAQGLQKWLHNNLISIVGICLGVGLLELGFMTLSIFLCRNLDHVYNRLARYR

B1: lilotomab: murine anti-CD37 IgG1 mAb (antibody, chains of the INN, looked up, V domains shown)
VH: EIQLQQSGPELVKPGASVKVSCKASGYSFTDYNMYWVKQSHGKSLEWIGYIDPYNGDTTYNQKFKGKATLTVDKSSSTAFIHLNSLTSEDSAVYYCARSPYGHYAMDYWGQGTSVTVSS
VL: DIVMTQSHKLLSTSVGDRVSITCKASQDVSTAVDWYQQKPGQSPKLLINWASTRHTGVPDRFTGSGSGTDYTLTISSMQAEDLALYYCRQHYSTPFTFGSGTKLEIK

Key:
[1] = tested on: DOHH2 cells; test: Cell cycle analysis (PI, Muse flow cytometer); format: cell-based, human; conditions: DOHH2, 1 μM inhibitor + ^177Lu-lilotomab, versus ^177Lu-lilotomab alone or untreated
Description: (§1) Cells were harvested at day 0, 2 h, 18 h, 1 d, 2 d, 3 d, of RIT then fixed in 70% ethanol at −20° C. for 3 hours and stained with Cell Cycle kit (with PI) reagent from Merck Millipore in the dark for 30 min at room temperature before analysis using a Muse® flow cytometer. The percentage of cells in G0/G1, S and G2/M phases was then calculated (mean of three experiments in triplicate).
(§2) At different times after start of incubation, proteins were extracted to measure the CDK1 phosphorylation levels, in parallel, proliferation was determined and at 18 h and 24 h after start of incubation, the percentage of cells in G2/M was assessed (experiments were performed three time except the cell cycle analysis).
(§3) Cells were harvested at 0 h, 2 h, 18 h, 1 d, 2 d, 3 d, and fixed in 70% ethanol at −20° C. for at least 3 h. After staining with the Muse® Cell Cycle Assay Kit (Merck Millipore, Molsheim, France) using propidium iodide in the dark at room temperature for 30 min, cell cycle distribution was analyzed using a Muse® flow cytometer. The percentage of cells in the G0/G1, S and G2/M was calculated (mean of three experiments in triplicate) and the effect of WEE-1 and MYT-1 kinase inhibitors on the cell cycle was assessed.

[2] = tested on: Ramos cells; test: Cell cycle analysis (PI, Muse flow cytometer); format: cell-based, human; conditions: 1 μM inhibitor + ^177Lu-lilotomab, versus ^177Lu-lilotomab alone or untreated
Description: as §1, §2, §3

[3] = tested on: Rec-1 cells; test: Cell cycle analysis (PI, Muse flow cytometer); format: cell-based, human; conditions: Rec-1, 1 μM inhibitor + ^177Lu-lilotomab, versus ^177Lu-lilotomab alone or untreated
Description: as §1, §2, §3

[4] = tested on: OCI-Ly8 cells; test: Cell cycle analysis (PI, Muse flow cytometer); format: cell-based, human; conditions: OCI-Ly8, 1 μM inhibitor + ^177Lu-lilotomab, versus ^177Lu-lilotomab alone
Description: Cells were harvested at 0 […], and fixed in 70% ethanol at -20° C. for at least 3 h. After staining with the Muse® Cell Cycle Assay Kit (Merck Millipore, Molsheim, France) using propidium iodide in the dark at room temperature for 30 min, cell cycle distribution was analyzed using a Muse® flow cytometer. The percentage of cells in the G0/G1, S and G2/M was calculated (mean of three experiments in triplicate) and the effect of WEE-1 and MYT-1 kinase inhibitors on the cell cycle was assessed.

[5] = tested on: DOHH2 cells; test: Proliferation study with Wee-1/Myt-1 inhibitors and ^177Lu-lilotomab; format: cell-based, human; conditions: DOHH2, inhibitor alone 1 μM for 18 h, 6 days after start
Description: (§4) Cells were treated for 18 h with 1 μM of the selective Wee-1 kinase inhibitor MK-1775 (Selleckchem, Houston, USA) or of the dual Wee-1/Myt-1 inhibitor PD-166285 (EMD Merck Millipore/Calbiochem, Molsheim, France) alone or in combination with 6 MBq/mL, 2 MBq/mL and 0.5 MB/mL of ^177Lu-lilotomab for Ramos, Rec-1 and DOHH2 cells respectively. At different times after start of incubation, proteins were extracted to measure the CDK1 phosphorylation levels, in parallel, proliferation was determined and at 18 h and 24 h after start of incubation, the percentage of cells in G2/M was assessed (experiments were performed three time except the cell cycle analysis).
(§5) The activity used for the treatment with ^177Lu-lilotomab was chosen to decrease the proliferation to about 50% for the three cell lines compared with non-treated cells.
(§6) Inhibition of G2/M cell cycle arrest radiosensitises radioresistant Ramos model. The Bliss independence mathematical model was next used to investigate the role of MK-1775 or PD-166285 on the response to ^177Lu-lilotomab. A theoretical therapeutic efficacy was calculated for the two combinations (MK-1775 or PD-166285) in the three cell lines. And the comparison between the experimental and the theoretical curves was done.
(§7) Theoretical efficacyRIT+inhib=EfficacyRIT+Efficacyinhib−(EfficacyRIT×Efficacyinhib)

[6] = tested on: Ramos cells; test: as above; format: cell-based, human; conditions: inhibitor 1 μM + ^177Lu-lilotomab 6 MBq/mL (RIT) for 18 h, 6 days after start
Description: as §4, §5, §6, §7

[7] = tested on: DOHH2 cells; test: Apoptosis induction (Annexin V/7-AAD, Muse flow cytometer); format: cell-based, human; conditions: DOHH2, 18 h exposure to unlabelled mAb, plateau at 18 h
Description: (§8) Cells were harvested at 0, 2 h, 18 h, 1 d, 2 d, 3 d of RIT. At each time point, apoptosis was detected with […] from Merck Millipore (Annexin V Kit with 7-AAD) in the dark for 30 min at room temperature before analysis using Muse® flow cytometer

[8] = tested on: Ramos cells; test: as above; format: cell-based, human; conditions: 18 h exposure to unlabelled mAb, at peak time
Description: as §8

[9] = tested on: Rec-1 cells; test: as above; format: cell-based, human; conditions: Rec-1, 18 h exposure to unlabelled mAb, at peak time
Description: as §8

[10] = biological target: T1, CD37 receptor; conditions: cited from earlier work
[11] = tested on: OCI-Ly8 tumor xenografts; test: Treatment of mice with tumor xenografts; conditions: single agent

Molecule | Proportion of cells in G2/M, inhibitor combined with ^177Lu-lilotomab [1] | Proportion of cells in G2/M, inhibitor combined with ^177Lu-lilotomab [2] | Proportion of cells in G2/M, inhibitor combined with ^177Lu-lilotomab [3] | Proportion of cells in G2/M, inhibitor combined with ^177Lu-lilotomab [4] | Proliferation (treated/untreated cells) [5] | Proliferation (treated/untreated cells) [6] | Apoptosis level [7] | Apoptosis level [8] | Apoptosis level [9] | Equilibrium dissociation constant [10] | Therapeutic efficacy compared with control [11]
CCN(CC)CCOc1ccc(Nc2ncc3cc(-c4c(Cl)cccc4Cl)c(=O)n(C)c3n2)cc1 [PD-166285] | higher than that induced by the combination with the MK-1775; also recorded: reduction of the fraction of G2/M cells | reduction of the fraction of G2/M cells | reduction of the fraction of G2/M cells | reduction of the fraction of G2/M cells | 18% | ~10% |  |  |  |  | 
B1 |  |  |  |  |  |  | No apoptosis was induced | No apoptosis was induced | No apoptosis was induced | nanomolar | no therapeutic efficacy
